Results: paper PMC12811996, “Exploration and Characterization of the Antimalarial Activity of Pyrimidine‐2,4‐Diamines for which Resistance is Mediated by the ABCI3 Transporter” (Chemmedchem, 2025)
Values after ≈ are worked out from the molar mass of the structure shown. Where two headings read alike, the source gives them in different places.

What was measured:
[1] = physchem; format: physicochemical; conditions: kinetic in PBS, pH 7.4
Description: (§1) The aqueous solubility and in vitro metabolic stability of selected analogs were assessed to determine if they had favorable parameters (Table 9 ).These analogs were selected based on their potency and the modifications that were incorporated, which led to compounds 55 and 56. […] The high lipophilicity of analogs 1, 11, and 16 was not favorable for metabolic stability.
(§2) This was performed as previously described.^[ [14] ^, [16] ^]

[2] = in vitro; format: in vitro ADME; conditions: for microsomal CLint: human, microsomes, human liver microsomes; for hepatocyte CLint: rat hepatocytes
Description: as §1, §2

[3] = physchem; format: physicochemical; conditions: shake-flask method; for logD: read-out: eLogD
Description: as §2

[4] = target: Albumax (Bos taurus, UniProt P02769); experiment: in vitro; format: in vitro ADME; conditions: for fraction unbound: bovine, isolated protein, read-out: Albumax binding % bound (converted)
[5] = system: P. falciparum 3D7 parasites; experiment: P. falciparum 3D7 asexual stage parasite LDH assay, 72 h; format: cell-based, Plasmodium falciparum; conditions: for fold reduction in antiplasmodial activity compared to W482 (1): ratio of 3D7 EC50 values; for EC50: Plasmodium falciparum, 3D7, 72 h, P. falciparum 3D7, LDH activity, 72 h exposure, means and SDs, 3 or more experiments, read-out: Pf parasite EC50 (SD)
Description: To establish the SAR, the antiparasitic activity of the analogs was determined using an assay that measures the lactate dehydrogenase (LDH) activity of asexual P. falciparum 3D7 parasites after 72 h of compound treatment. Mammalian cytotoxicity was monitored using an assay that measures the growth of HepG2 cells using Cell Titer‐Glo after 48 h of compound treatment.
This was performed as previously described, whereby lactate dehydrogenase (LDH) was used as a metabolic marker for parasite growth after a 72‐h incubation period.^[ [14] ^, [30] ^]

[6] = system: PfABCI3-HAreg parasites; experiment: Parasite proliferation assay with PfABCI3-HAreg parasites (SYBR Safe, 72 h); format: cell-based, Plasmodium falciparum; conditions: mean ± SEM, n = 4; for IC50: Plasmodium falciparum, 72 h
Description: Glucosamine (GlcN) (5 mM) was used to reduce the level of pfabci3‐ha. Chloroquine and MMV020746 were used as negative and positive controls, respectively.
Figure 4 Sensitivity of PfABCI3‐HAreg parasites to growth inhibition by chloroquine (a), MMV020746 (b), and W482 (1) (c). Data for parasites in which pfabci3‐ha mRNA was reduced (+ GlcN) are shown in red. GlcN (5 mM) was added to the parasites 48 h prior to the assay and maintained throughout the 72 h assay. The data for parasites expressing a normal level of PfABCI3‐HA (‐GlcN) are shown in black. The data in all panels are from four independent experiments performed on different days. […] Parasites that were treated with or without GlcN (5 mM) were tested concurrently in each assay. TEXT PRINTED IN THE PICTURE: chloroquine: IC50 ± SEM (nM) - GlcN: 12.6 ± 1.1; IC50 ± SEM (nM) + GlcN: 11.9 ± 1.5 | MMV020746: IC50 ± SEM (nM) - GlcN: 104 ± 13; IC50 ± SEM (nM) + GlcN: 32.9 ± 3.9 | W482 (1): IC50 ± SEM (nM) - GlcN: 312 ± 28; IC50 ± SEM (nM) + GlcN: 153 ± 12
Parasite proliferation assays were performed with PfABCI3‐HAreg parasites^[ [19] ^] according to a previously described method, with the fluorescent nucleic acid intercalating dye SYBR Safe used to measure parasite viability.^[ [32] ^, [33] ^] The assays were commenced with cultures consisting of predominantly ring‐stage parasites with a starting hematocrit of 1% and parasitemia of 1%. […] It was shown previously that there is a reduction in pfabci3‐ha mRNA in PfABCI3‐HAreg exposed to 5 mM GlcN and a decrease in parasite viability over time.^[ [19] ^] The level of knockdown of the protein is not known.

[7] = read-out: Aqueous solubility pH 7.4
[8] = aqueous buffer, kinetic from dmso stock

Albumax, sequence (P02769 25-607): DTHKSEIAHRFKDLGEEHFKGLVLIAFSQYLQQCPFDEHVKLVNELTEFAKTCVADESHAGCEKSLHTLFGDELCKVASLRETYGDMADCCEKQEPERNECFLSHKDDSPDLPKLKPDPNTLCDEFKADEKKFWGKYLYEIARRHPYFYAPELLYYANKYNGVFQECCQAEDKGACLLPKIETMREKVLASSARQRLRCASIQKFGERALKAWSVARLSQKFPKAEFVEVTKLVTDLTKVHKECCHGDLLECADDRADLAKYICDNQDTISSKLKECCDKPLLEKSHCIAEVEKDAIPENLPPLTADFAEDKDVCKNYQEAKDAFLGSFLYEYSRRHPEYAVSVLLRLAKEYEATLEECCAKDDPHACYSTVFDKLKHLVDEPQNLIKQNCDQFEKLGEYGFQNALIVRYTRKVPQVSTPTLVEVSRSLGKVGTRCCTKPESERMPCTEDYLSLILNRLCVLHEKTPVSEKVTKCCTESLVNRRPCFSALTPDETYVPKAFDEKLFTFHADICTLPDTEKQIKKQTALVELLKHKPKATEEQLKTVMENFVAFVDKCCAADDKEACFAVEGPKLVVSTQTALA

Compound | EC50 [5] [µM] | other results
3‐Cyclohexyl‐N‐(4‐((4‐(dimethylamino)quinazolin‐2‐yl)amino)phenyl)propenamide [Compound 16] |  | solubility [1, 7]: 2.5 µM; Human liver microsomes CLint [2]: 166 µL/min/mg; Rat hepatocytes CLint [2]: >92 µL/min/10^6 cells; eLogD [3]: 4.6–5.0; Albumax binding % bound [4]: 96.6%
3‐Cyclohexyl‐N‐(4‐((4‐methyl‐6‐(4‐methylpiperazin‐1‐yl)pyrimidin‐2‐yl)amino)phenyl)propenamide [Compound 11] |  | solubility [1, 7]: 2.6 µM; Rat hepatocytes CLint [2]: >92 µL/min/10^6 cells; eLogD [3]: 4.6–5.0; Albumax binding % bound [4]: 99.9%
3‐Cyclohexyl‐N‐(4‐((4‐methyl‐6‐morpholinopyrimidin‐2‐yl)amino)phenyl)propenamide [Compound 9] |  | fold reduction in antiplasmodial activity compared to W482 (1) [5]: 4 fold
3‐Cyclohexyl‐N‐(6‐((4‐(dimethylamino)‐6‐methylpyrimidin‐2‐yl)amino)pyridin‐3‐yl)propenamide [Compound 25] |  | fold reduction in antiplasmodial activity compared to W482 (1) [5]: 8 fold
Cc1cc(N(C)Cc2ccccc2)nc(Nc2ccc(NC(=O)CCC3CCCCC3)cc2)n1 [Compound 6, N‐(4‐((4‐(Benzyl(methyl)amino)‐6‐methylpyrimidin‐2‐yl)amino)phenyl)‐3‐cyclohexylpropanamide] | 0.6 | 
Cc1cc(Nc2ccc(NC(=O)CCC3CCCCC3)cc2)nc(N(C)C)c1 [Compound 19, 3‐Cyclohexyl‐N‐(4‐((6‐(dimethylamino)‐4‐methylpyridin‐2‐yl)amino)phenyl)propanamide] | 0.61 | 
Cc1cc(N(C)C)cc(Nc2ccc(NC(=O)CCC3CCCCC3)cc2)n1 [Compound 20, 3‐Cyclohexyl‐N‐(4‐((4‐(dimethylamino)‐6‐methylpyridin‐2‐yl)amino)phenyl)propanamide] | 0.88 | 
CN(C)c1nc(Nc2ccc(NC(=O)CCC3CCCCC3)cc2)cc2ccccc12 [Compound 21, 3‐Cyclohexyl‐N‐(4‐((1‐(dimethylamino)isoquinolin‐3‐yl)amino)phenyl)propanamide] | > 10 | 
Cc1cc(N(C)C)nc(Nc2ccc(NC(=O)c3cccs3)cc2)n1 [Compound 27] | 1.44 | 
Cc1cc(N(C)C)nc(Nc2ccc(NC(=O)c3ccco3)cc2)n1 [Compound 28] | 3.9 | 
Cc1cc(N(C)C)nc(Nc2ccc(NC(=O)c3ccc4ccccc4c3)cc2)n1 [Compound 29] | 0.36 | 
Cc1cc(N(C)C)nc(Nc2ccc(NC(=O)C(C)C)cc2)n1 [Compound 30] | 3.76 | 
Cc1cc(N(C)C)nc(Nc2ccc(NC(=O)C(C)(C)C)cc2)n1 [Compound 31] | 3.36 | 
Cc1cc(N(C)C)nc(Nc2ccc(NC(=O)CC(C)C)cc2)n1 [Compound 32] | 1.63 | 
Cc1cc(N(C)C)nc(Nc2ccc(NC(=O)C3CCCCC3)cc2)n1 [Compound 33] | 0.93 | 
Cc1cc(N(C)C)nc(Nc2ccc(NC(=O)CCC3CCCC3)cc2)n1 [Compound 34] | 1 | fold reduction in antiplasmodial activity compared to W482 (1) [5]: 2 fold
Cc1cc(N(C)C)nc(Nc2ccc(NC(=O)c3ccccc3Cl)cc2)n1 [Compound 35] | 2.12 | 
Cc1cc(N(C)C)nc(Nc2ccc(NC(=O)c3ccccc3Br)cc2)n1 [Compound 36] | 1.85 | 
Cc1cc(N(C)C)nc(Nc2ccc(NC(=O)c3ccccc3C(F)(F)F)cc2)n1 [Compound 37] | 0.85 | fold reduction in antiplasmodial activity compared to W482 (1) [5]: 2 fold
Cc1cc(N(C)C)nc(Nc2ccc(NC(=O)c3cccc(F)c3)cc2)n1 [Compound 38] | 0.78 | fold reduction in antiplasmodial activity compared to W482 (1) [5]: 2 fold

Compound | EC50 [5] [µM] | other results
Cc1cc(N(C)C)nc(Nc2ccc(NC(=O)c3cccc(Br)c3)cc2)n1 [Compound 39] | 0.45 | 
Cc1cccc(C(=O)Nc2ccc(Nc3nc(C)cc(N(C)C)n3)cc2)c1 [Compound 40] | 1.08 | fold reduction in antiplasmodial activity compared to W482 (1) [5]: 2 fold
Cc1cc(C)cc(C(=O)Nc2ccc(Nc3nc(C)cc(N(C)C)n3)cc2)c1 [Compound 41] | 0.59 | 
Cc1cc(N(C)C)nc(Nc2ccc(NC(=O)c3ccc(C)c(C)c3)cc2)n1 [Compound 42] | 0.66 | 
COc1cc(OC)cc(C(=O)Nc2ccc(Nc3nc(C)cc(N(C)C)n3)cc2)c1 [Compound 43] | 0.64 | 
COc1ccc(Cl)cc1C(=O)Nc1ccc(Nc2nc(C)cc(N(C)C)n2)cc1 [Compound 44] | 0.49 | 
Cc1cc(N(C)C)nc(Nc2ccc(NC(=O)Nc3ccccc3F)cc2)n1 [Compound 45] | 3.42 | 
Cc1cc(N(C)C)nc(Nc2ccc(NC(=O)Nc3ccccc3Cl)cc2)n1 [Compound 46] | > 10 | 
Cc1cc(N(C)C)nc(Nc2ccc(NC(=O)Nc3ccccc3C)cc2)n1 [Compound 47] | 0.41 | 
COc1ccccc1NC(=O)Nc1ccc(Nc2nc(C)cc(N(C)C)n2)cc1 [Compound 48] | 0.38 | 
Cc1cc(N(C)C)nc(Nc2ccc(NC(=O)Nc3cccc(Cl)c3)cc2)n1 [Compound 49] | 0.24 | 
Cc1cccc(NC(=O)Nc2ccc(Nc3nc(C)cc(N(C)C)n3)cc2)c1 [Compound 50] | 0.24 | 
Cc1cc(N(C)C)nc(Nc2ccc(NC(=O)Nc3ccc(F)cc3)cc2)n1 [Compound 51] | 0.3 | solubility [1, 8]: 3.7 µM (≈ 1.41 µg/mL); microsomal CLint [2]: 26 µL/min/mg; hepatocyte CLint [2]: 32 µL/min/1e6 cells; logD [3]: 3; fraction unbound [4]: 0.016
Cc1cc(N(C)C)nc(Nc2ccc(NC(=O)Nc3ccc(Cl)cc3)cc2)n1 [Compound 52] | 0.34 | 
Cc1ccc(NC(=O)Nc2ccc(Nc3nc(C)cc(N(C)C)n3)cc2)cc1 [Compound 53] | 0.44 | 
COc1ccc(NC(=O)Nc2ccc(Nc3nc(C)cc(N(C)C)n3)cc2)cc1 [Compound 54] | 0.4 | 
O=C(CCC1CCCCC1)Nc1ccc(Nc2nc(N3CCNCC3)c3ccccc3n2)cc1 [Compound 55, 3‐Cyclohexyl‐N‐(4‐((4‐(piperazin‐1‐yl)quinazolin‐2‐yl)amino)phenyl)propanamide] | 0.23 | solubility [1, 8]: 2.5 µM (≈ 1.15 µg/mL); Human liver microsomes CLint [2]: 117 µL/min/mg; microsomal CLint [2]: > 117 µL/min/mg; hepatocyte CLint [2]: 27 µL/min/1e6 cells; logD [3]: 3.2; fraction unbound [4]: 0.002
O=C(Nc1ccc(F)cc1)Nc1ccc(Nc2nc(N3CCNCC3)c3ccccc3n2)cc1 [Compound 56, 1‐(4‐Fluorophenyl)‐3‐(4‐((4‐(piperazin‐1‐yl)quinazolin‐2‐yl)amino)phenyl)urea] | 0.18 | solubility [1, 8]: 9.6 µM (≈ 4.39 µg/mL); hepatocyte CLint [2]: 21 µL/min/1e6 cells; logD [3]: 2.2; fraction unbound [4]: 0.001
CCN(CC)CCCC(C)Nc1ccnc2cc(Cl)ccc12 (stereo not shown) [chloroquine, reference compound] |  | IC50 ([6]; PfABCI3-HAreg parasites expressing normal level of PfABCI3-HA (-GlcN)): 0.0126 ± 0.0011 µM; IC50 ([6]; PfABCI3-HAreg parasites with reduced pfabci3-ha mRNA (+ 5 mM GlcN)): 0.0119 ± 0.0015 µM; fold lower IC50 for +GlcN parasites than -GlcN parasites [6]: equally potent
